Each structure is given as a SMILES string. Where two headings read alike, the source gives them in different places.

Consider eight molecules from patent US10219516B2, “Molecules having pesticidal utility, and intermediates, compositions, and processes, related thereto” (priority 2015, dated 2019).

Common to all, as to assay type: in vivo
Assay [1] deals with Cabbage Looper (Trichoplusia ni, TRIPNI). In words: Bioassay on Cabbage Looper (CL), 128-well diet tray assay. Conditions: Trichoplusia ni. Put shortly:
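Mortality of second instar larvae exposed to diet coated with 50 μg/cm^2 compound (acetone-water 90:10 vehicle, dried); 25° C., 5–7 days.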

Assay [2] has as its system Beet Armyworm (Spodoptera exigua, LAPHEG). The experiment in a line: Bioassay on Beet Armyworm (BAW), 128-well diet tray assay. Put shortly: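 Artificial diet surface-treated with 50 μg/cm^2 test molecule in 90:10 acetone-water, dried, then infested with one to five second instar larvae per well. Held covered and vented at 25° C., 14:10 light-dark for five to seven days; percent mortality recorded per well and averaged over eight wells.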

Assay [3] relates to Yellow Fever Mosquito (Aedes aegypti, AEDSAE). The experiment in a line: Bioassay on Yellow Fever Mosquito (YFM), 96-well plate larval assay. Particulars: for YFM (Biological Results, rating): Species YFM (Yellow Fever Mosquito); for YFM rating: Yellow Fever Mosquito, 96-well plate larval assay. In outline: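 Compound stocks at 4000 ppm in DMSO were diluted with 90:10 water/acetone, and 15 μL aliquots were dispensed into six replicate plates. About 1-day-old larvae in liver-powder water were added per well. Plates were covered and held at room temperature for 3 days before each well was scored for mortality.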

Setting [4] is: Species CL (Cabbage Looper), read-out: CL (Biological Results, rating).
The mark [5] stands for this setting: Species BAW (Beet Armyworm), read-out: BAW (Biological Results, rating).
[6] abbreviates: Cabbage Looper, 128-well diet tray assay, read-out: CL rating.
Where [7] appears, read: Beet Armyworm, 128-well diet tray assay, read-out: BAW rating.

As for `O=C(Nc1c(F)cccc1F)c1cc(NC(=O)[C@H]2[C@H](c3ccc(C(F)(F)F)cc3)C2(Cl)Cl)ccc1Cl` (relative stereo) [F83, trans-2-Chloro-5-(2,2-dichloro-3-(4-(trifluoromethyl)phenyl)cyclopropane-1-carboxamido)-N-(2,6-difluorophenyl)benzamide], the pest or weed control at 50 µg/cm2 in assay [1] (setting [4]) and in assay [2] (setting [5]) was 50 to 100% in each case. Moreover, in assay [3], the “YFM (Biological Results, rating)” value is listed as “A (80-100)”.

In the case of `CN1CCCc2cc(NC(=O)c3cc(NC(=O)[C@H]4[C@H](c5cc(Cl)cc(Cl)c5)C4(Cl)Cl)ccc3Cl)ccc21` (relative stereo) [F491, 2-Chloro-5-(trans)-(2,2-dichloro-3-(3,5-dichlorophenyl)cyclopropane-1-carboxamido)-N-(1-methyl-1,2,3,4-tetrahydroquinolin-6-yl)benzamide], the pest or weed control at 50 µg/cm2 in assay [1] (setting [6]) and in assay [2] (setting [7]) was 50 to 100% each time. In assay [3], the YFM rating entry was “A (80-100)”.

Regarding `Nc1c(F)cc(NC(=O)c2cc(NC(=O)[C@H]3[C@H](c4ccc(F)c(Cl)c4)C3(Cl)Cl)ccc2Cl)cc1F` [F381, N-(4-Amino-3,5-difluorophenyl)-2-chloro-5-((1R,3R)-2,2-dichloro-3-(3-chloro-4-fluorophenyl)cyclopropane-1-carboxamido)benzamide], the pest or weed control at 50 µg/cm2 in assay [1] (setting [6]) and in assay [2] (setting [7]) was 50 to 100% each time. For the same molecule, the YFM rating entry in assay [3] is reported as “A (80-100)”.

`Cc1cc(F)ccc1NC(=O)c1cccc(NC(=O)[C@H]2[C@H](c3cc(Cl)cc(Cl)c3)C2(Cl)Cl)c1` (relative stereo) [F272, trans-3-(2,2-Dichloro-3-(3,5-dichlorophenyl)cyclopropane-1-carboxamido)-N-(4-fluoro-2-methylphenyl)benzamide]: the pest or weed control at 50 µg/cm2 in assay [1] (setting [4]) and in assay [2] (setting [5]) was 50 to 100% throughout. In addition, the “YFM (Biological Results, rating)” value in assay [3] is given as “A (80-100)”.

Regarding `Cc1cc(NC(=O)OC(C)(C)C)ccc1NC(=O)c1cc(NC(=O)[C@H]2[C@H](c3ccc(Cl)c(Br)c3)C2(Cl)Cl)ccc1Cl` (relative stereo) [F334, tert-Butyl (4-(5-(trans-3-(3-bromo-4-chlorophenyl)-2,2-dichlorocyclopropane-1-carboxamido)-2-chlorobenzamido)-3-methylphenyl)carbamate], the pest or weed control at 50 µg/cm2 in assay [1] (setting [4]) and in assay [2] (setting [5]) was 50 to 100% throughout. For the same molecule, in assay [3], the “YFM (Biological Results, rating)” value was “A (80-100)”.

For `CN1C(=O)CCc2cc(NC(=O)c3cc(NC(=O)[C@H]4[C@H](c5cc(Cl)cc(Cl)c5)C4(Cl)Cl)ccc3Cl)ccc21` (relative stereo) [F490, 2-chloro-5-(trans)-(2,2-dichloro-3-(3,5-dichlorophenyl)cyclopropane-1-carboxamido)-N-(1-methyl-2-oxo-1,2,3,4-tetrahydroquinolin-6-yl)benzamide], the pest or weed control at 50 µg/cm2 in assay [1] (setting [6]) and in assay [2] (setting [7]) was 50 to 100% each time. In addition, the YFM rating result in assay [3] is on record as “A (80-100)”.

With `O=C(Nc1ccccc1)c1cc(NC(=O)[C@H]2[C@H](c3ccc(F)c(Cl)c3)C2(Cl)Cl)ccc1Cl` (relative stereo) [F259, trans-2-Chloro-5-(2,2-dichloro-3-(3-chloro-4-fluorophenyl)cyclopropane-1-carboxamido)-N-phenylbenzamide], the pest or weed control at 50 µg/cm2 in assay [1] (setting [4]) and in assay [2] (setting [5]) was 50 to 100% each time. Also, the “YFM (Biological Results, rating)” value in assay [3] is “A (80-100)”.

Turning to `CN1Cc2ccc(NC(=O)c3cc(NC(=O)[C@H]4[C@H](c5cc(Cl)cc(Cl)c5)C4(Cl)Cl)ccc3Cl)cc2C1=O` (relative stereo) [F517, 2-Chloro-5-(trans)-(2,2-dichloro-3-(3,5-dichlorophenyl)cyclopropane-1-carboxamido)-N-(2-methyl-3-oxoisoindolin-5-yl)benzamide], the pest or weed control at 50 µg/cm2 in assay [1] (setting [6]) and in assay [2] (setting [7]) was 50 to 100% each time. Moreover, the YFM rating entry in assay [3] was “A (80-100)”.
